Target: T1, human GABAA ρ2 receptor (homomeric) (Homo sapiens, UniProt P28476)
T1 construct: gene GABRR2; full-length homomeric pentamer; cRNA from pGEMHE vector injected into Xenopus laevis oocytes
Assay: two-electrode voltage clamp, Xenopus oocytes
Assay type: cell-based

T1 sequence (P28476 21-465): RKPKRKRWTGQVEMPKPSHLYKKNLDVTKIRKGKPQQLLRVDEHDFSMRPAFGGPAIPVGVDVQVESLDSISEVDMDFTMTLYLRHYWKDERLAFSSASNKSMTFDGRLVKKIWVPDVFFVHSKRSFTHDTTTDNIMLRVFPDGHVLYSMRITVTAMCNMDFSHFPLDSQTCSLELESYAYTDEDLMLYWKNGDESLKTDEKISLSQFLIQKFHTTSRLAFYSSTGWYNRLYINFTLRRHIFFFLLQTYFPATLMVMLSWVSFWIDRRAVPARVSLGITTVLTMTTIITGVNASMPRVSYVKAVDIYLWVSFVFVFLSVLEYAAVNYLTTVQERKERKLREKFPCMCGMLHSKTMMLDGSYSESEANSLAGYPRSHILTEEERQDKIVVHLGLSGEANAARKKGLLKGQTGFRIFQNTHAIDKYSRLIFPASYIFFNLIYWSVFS

NCCCC(=O)O [GABA]
EC50: 0.891 µM

From PMC3894180, “GABAA Receptors Containing ρ1 Subunits Contribute to In Vivo Effects of Ethanol in Mice” (PLoS ONE, 2014)
